These are literature values, as cited in patent publication US6689338B2, “Bioconjugates of nanoparticles as radiopharmaceuticals” (The Board of Regents for Oklahoma State University, priority 2000, dated 2004).

This series relates to tumor. The settings on record: in vivo.

As for `O=C([O-])CN(CCN(CC(=O)[O-])CC(=O)[O-])CCN(CC(=O)[O-])CC(=O)[O-].[111In+3].[H+].[H+]`, the liver background entry is given as “high liver background”.
